Results taken from ChEMBL document CHEMBL5214987, “Scaffold hopping via ring opening enables identification of acyclic compounds as new complement Factor D inhibitors” (Bioorg Med Chem, 2022).
Values belong to the compound of their own block, whether it stands above or below them.

How the values were obtained:
in vitro = details: rabbit, rabbit erythrocytes
Description: Hemolytic activity against rabbit erythrocytes incubated for 30 mins in presence of human serum and measured by hemolysis assay

[1] = Cmax in male Sprague-Dawley rat at 2.5 mg/kg, iv; assay type: ADME, organism-based; design: dose 2.5 mg/kg, route iv; details: in vivo
[2] = Tmax in male Sprague-Dawley rat at 10 mg/kg, po; assay type: ADME, organism-based; details: in vivo
[3] = AUC (0 to 24 hrs) in male Sprague-Dawley rat at 10 mg/kg, po; assay type: ADME, organism-based; design: time < 24 hr, dose 10 mg/kg, route po; details: in vivo
[4] = Tmax in male Sprague-Dawley rat at 2.5 mg/kg, iv; assay type: ADME, organism-based; details: in vivo
[5] = Half-life in male Sprague-Dawley rat at 2.5 mg/kg, iv; assay type: ADME, organism-based; details: in vivo
[6] = AUC (0 to 24 hrs) in male Sprague-Dawley rat at 2.5 mg/kg, iv; assay type: ADME, organism-based; design: time < 24 hr, dose 2.5 mg/kg, route iv; details: in vivo
[7] = Half-life in male Sprague-Dawley rat at 10 mg/kg, po; assay type: ADME, organism-based; details: in vivo
[8] = Cmax in male Sprague-Dawley rat at 10 mg/kg, po; assay type: ADME, organism-based; design: dose 10 mg/kg, route po; details: in vivo
[9] = Volume of distribution at steady state in male Sprague-Dawley rat at 2.5 mg/kg, iv; assay type: ADME, organism-based; details: in vivo, read-out: Vdss
[10] = MRTlast in male Sprague-Dawley rat at 10 mg/kg, po; assay type: ADME, organism-based; details: in vivo
[11] = MRTlast at steady state in male Sprague-Dawley rat at 2.5 mg/kg, iv; assay type: ADME, organism-based; details: in vivo
[12] = Initial plasma concentration in male Sprague-Dawley rat at 2.5 mg/kg, iv; assay type: ADME, organism-based
[13] = Oral bioavailability in male Sprague-Dawley rat at 10 mg/kg; assay type: ADME, organism-based; details: in vivo
[14] = Clearance in male Sprague-Dawley rat at 2.5 mg/kg, iv; assay type: ADME, organism-based; details: in vivo
[15] = AUClast in male Sprague-Dawley rat at 2.5 mg/kg, iv; assay type: ADME, organism-based; design: time 0 - last, dose 2.5 mg/kg, route iv; details: in vivo
[16] = AUClast in male Sprague-Dawley rat at 10 mg/kg, po; assay type: ADME, organism-based; design: time 0 - last, dose 10 mg/kg, route po; details: in vivo

Compound: NC(=O)c1nn(CC(=O)N(CC(=O)NCc2cccc(Cl)c2F)C2CC2)c2ccc(NC(=O)NC3CCCCC3)cc12
IC50 at 30 min (in vitro): 76 nM

Compound: NC(=O)c1nn(CC(=O)N(CC(=O)NCc2cccc(Cl)c2F)C2CC2)c2ccc(NC(=O)N3CCN(Cc4ccc(F)cc4)CC3)cc12
IC50 at 30 min (in vitro): 17 nM

Compound: NC(=O)c1nn(CC(=O)N2CCC[C@H]2C(=O)NCc2cccc(Cl)c2F)c2ccccc12
Cmax [1]: 6740 ng/mL | Tmax [2]: 30 min | AUC(0-t) at 24 h [3]: 257 ng·h/mL | Tmax [4]: 4.98 min | half-life [5]: 298 min | AUC(0-t) at 24 h [6]: 3410 ng·h/mL | half-life [7]: 221 min | Cmax [8]: 69.3 ng/mL

Compound: NC(=O)c1nn(CC(=O)N(CC(=O)NCc2cccc(Cl)c2F)C2CC2)c2ccc(NC(=O)N3CCCC(F)(F)C3)cc12
IC50 at 30 min (in vitro): 17 nM

Compound: NC(=O)c1nn(CC(=O)N(CC(=O)NCc2cccc(Cl)c2F)C2CC2)c2ccc(NC(=O)N3CCN(C4CC4)CC3)cc12
IC50 at 30 min (in vitro): 64 nM

Compound: CN1CCC(N(C)C(=O)Nc2ccc3c(c2)c(C(N)=O)nn3CC(=O)N(CC(=O)NCc2cccc(Cl)c2F)C2CC2)CC1
IC50 at 30 min (in vitro): 30 nM | Vd [9]: 0.3 L/kg | MRT last [10]: 119 min | MRT last [11]: 21 min | C0 [12]: 9650 ng/mL | Tmax [2]: 30 min | bioavailability [13]: 1.7% | half-life [5]: 24.6 min | clearance [14]: 13.5 mL/min/kg | AUC(0-t) [15]: 3130 ng·h/mL | half-life [7]: 69 min | Cmax [8]: 113 ng/mL | AUC(0-t) [16]: 209 ng·h/mL

More lines, now with the values ahead:

IC50 at 30 min (in vitro): 110 nM
Compound: CCN(CC)CCNC(=O)Nc1ccc2c(c1)c(C(N)=O)nn2CC(=O)N(CC(=O)NCc1cccc(Cl)c1F)C1CC1

IC50 at 30 min (in vitro): 220 nM
Compound: COC(=O)c1ccc2c(C(N)=O)nn(CC(=O)N(CC(=O)NCc3cccc(Cl)c3F)C3CC3)c2c1

IC50 at 30 min (in vitro): 73 nM
Compound: CC(C)(C)NC(=O)Nc1ccc2c(c1)c(C(N)=O)nn2CC(=O)N(CC(=O)NCc1cccc(Cl)c1F)C1CC1

IC50 at 30 min (in vitro): 34 nM
Compound: CC(C)(C)OC(=O)Nc1ccc2c(c1)c(C(N)=O)nn2CC(=O)N(CC(=O)NCc1cccc(Cl)c1F)C1CC1
